pIC50: −log10 of the molar value.
Target: Presenilin-1 (Homo sapiens, UniProt P49768)
Experiment: Inhibition of gamma-secretase in cell-free human HeLa membrane assessed as amyloid beta-42 production using APP as substrate

## CC(C)C[C@H](NC(=O)[C@H](Cc1ccccc1)C[C@@H](O)[C@H](Cc1ccccc1)NC(=O)OC(C)(C)C)C(=O)N[C@@H](Cc1ccc(C(=O)c2ccccc2)cc1)C(=O)NCCCCCNC(=O)CCCC[C@@H]1SC[C@@H]2NC(=O)N[C@@H]21
  pIC50: 9.52

Source: BindingDB's records for doi:10.1016/j.bmcl.2012.02.027 (Memorial Sloan-Kettering Cancer Center, 2012)
